The target in one assay is T1, human factor Xa (Homo sapiens, UniProt P00742).
T1 construct: purchased SIGMA
In words: Inhibition of the amidolytic effect of factor Xa in solution on Bz-Ile-Glu-Gly-Arg-pNA (method M6). Format: biochemical. How it is done:
(§1) Anticoagutant activity (i.e. inhibition of the proteolytic reactions in the process) is measured by anticoagulant tests, e.g. by the thrombin time (TT), activated partial thromboplastin time (APTT) and prothrombin time (PT) tests [E. J. W. Bovie et al; Mayo Clinic Laboratory Manual of Hemostasis; W. B. Sanuders Co., Philadelphia (1971)]. Plasma, inhibited in spontaneous coagulation, e.g. citrate-plasma, is made to coagulate and the required coagulation time is measured. Upon the action of anticoagulants the coagulation time is prolonged proportionally to the inhibition of the reaction(s) in the process. The anticoagulant effect can be characterized by the substance concentration required to double the coagulation time compared to the control (IC50). The effect of anticoagulants on individual coagulant proteases is measured by the amidolytic method [R. Lottenberg et al., Methods in Enzymol. 80, 341 (1981); G. Cleason, Blood Coagulation and Fibrinolysis 5, 411 (1994)]. The isolated active factor (e.g. thrombin, fXa) and its chromogen or fluorogen peptide-amide substrate are reacted in the presence or absence of the inhibitor, resp. The enzyme inhibiting action is characterized by the inhibitory constant (IC50) measured during amidolysis.
(§2) The in vitro anticoagulant effect of the compounds of general formula (I) was measured by the prothrombin time (PT), activated partial thromboplastin time (APTT) and thrombin time (TT) tests [D. Bagdy et at., Thromb. Haemost. 67, 325 (1992)]. The Xa-factor-inhibiting effect of the compounds was also determined by using the Bz-Ile-Glu-Gly-Arg-pNA chromogen substrate (see method M6).
Assay of the Inhibition of Factor Xa in Solution on a 96-well Microtiter Plate
a) 1.3 U/mL factor Xa (human, SIGMA), 0.1-1.0-10 and 100 μg/mL solutions in phosphate buffer (0.1 M sodium phosphate and 0.05 M sodium chloride, pH 7.4) of the peptide inhibitors and […] solutions of the substrate Bz-Ile-Glu-Gly-Arg-pNA in distilled water are used.
b) Three reaction mixtures are prepared from the control and each peptide solution. 30 μL each of the peptide and the buffer, serving as control, 30 μL factor Xa, 90 μL butter and 150 μL substrate are placed in the wells of the plate, then after 10 minutes the extinction values are read at 405 nm The procedure is continued as described in Method M2, point c).

Assay [1] concerns citrate plasma coagulation (PT). In words: Prothrombin time (PT) plasma clotting test. The format is biochemical. Particulars: concentration doubling clotting time. How it is done: as §1
(§3) In the TT test coagulation is initiated by the thrombin added to the citrate plasma. In the system 22 pmol/mL of thrombin is functioning and in the presence of plasma components its inhibition can be measured on the fibrinogen (one of the natural substrates of thrombin) present In the APTT and PT tests the full coagulation process is made to proceed. Depending on the activator fX is activated by the extrinsic or intrinsic pathway. The generated fXa activates prothrombin to thrombin which, in turn, triggers plasma coagulation. In the test the coagulation time is prolonged if the enzymes or one of them is inhibited by the inhibitor. In the APTT and PT tests at most 40 pmole/ml Xa is generated (this is the full amount of factor X present in both systems) while 150 pmole/ml (APTT) and 350 pmole/ml (PT) are generated from thrombin [B Kaiser et al., Thromb. Res. 65, 157 (1992)].
as §2

Assay [2] concerns citrate plasma coagulation (APTT). In words: Activated partial thromboplastin time (APTT) plasma clotting test. Format: biochemical. To be noted: concentration doubling clotting time. How it is done:
as §1, §3, §2

Assay [3] addresses T2, thrombin (Homo sapiens, UniProt P00734).
T2 construct: The isolated active factor (e.g. thrombin, fXa) and its chromogen or fluorogen peptide-amide substrate are reacted
In words: Thrombin time (TT) plasma clotting test. Format: biochemical. Particulars: concentration doubling clotting time. Here is the method:
as §1, §3, §2

The next assay concerns the target fXa (Homo sapiens, UniProt P00742). To be noted: Z-D-Arg-Gly-Arg-pNA substrate; according to the literature; read-out: IC50, amidolytic activity of fXa; cited from earlier work.
Another assay deals with plasmin (PL) (Homo sapiens, UniProt P00747). In words: Fibrin-plate method, plasmin. To be noted: for IC50: fibrin-plate method, hydrolyzed area reduced by 50%. The format is biochemical. An excerpt:
(§4) The inhibitory effect of the new compounds of the invention on plasmin (PL) as well as on plasmin formation induced by tissue plasminagen activator (tPA) and urokinase (UK) was studied by the […] [D. Bagdy et al.; Thromb. Haemost. 67, 325 (1992)]. Compounds C1 and C3 served as controls. […] V. Jackson et al., J. Cardiovasc. Pharmacol. 21, 587 (1993)].
(§5) ^a IC50 = peptide concentration (mM) where the hydrolyzed area o
(§6) the fibrin plate is reduced by 50% compared to the control

Assay [4] concerns the target tissue plasminogen activator (tPA) (Homo sapiens, UniProt P00750). In words: Fibrin-plate method, plasmin formation induced by tPA. Format: biochemical. To be noted: for IC50: fibrin-plate method, hydrolyzed area reduced by 50%.
Source text: as §4, §5, §6

The target of a further assay is urokinase (UK) (Homo sapiens, UniProt P00749). In words: Fibrin-plate method, plasmin formation induced by urokinase. The format is biochemical. Particulars: for IC50: fibrin-plate method, hydrolyzed area reduced by 50%.
Source text: as §4, §5, §6

In assay [5] the test system is citrate plasma coagulation (PT). Particulars: Table 1; published value; read-out: B: IC50, PT; cited from earlier work.
Assay [6] deals with citrate plasma coagulation (APTT). To be noted: Table 1; published value; read-out: B: IC50, APTT; cited from earlier work.
The target in assay [7] is T2, thrombin. Particulars: specific fXa inhibitors, literature; cited from earlier work.
Assay [8] addresses T3, plasma clot entrapped thrombin (Homo sapiens, UniProt P00734).
T3 construct: Here prothrombin is converted to thrombin; from tissue; host or cells: clot of recalcified platelet-rich human citrate plasma
In words: Inhibition of thrombin entrapped in plasma clot (methods M1, M3). The format is biochemical. To be noted: platelet-rich human plasma clot; Tos-Gly-Pro-Arg-pNA substrate. How it is done:
(§7) The plasma clot was obtained by the recalcification of platelet-rich human citrate plasma and fibrin gel by the coagulation of human fibrinogen with human thrombin Z-D-Arg-Gly-Arg-pNA and Tos Gly-Pro-Arg-pNA were used as substrates for measuring the activity of factor Xa and thrombin (methods M1-M5).
Preparation of Plasma Clot
a) Platelet-rich plasma (PRP) is prepared by centrifuging a 9:1 mixture of human blood and 3.8% aqueous sodium citrate solution (1/2) for 5 minutes at 240×g.
b) 200 μL of PRP are placed in each reaction vessel, 80 μL of 40 mM calcium chloride solution is added and the mixture is left to stand at room temperature for one hour. The plasma clot formed is rinsed mildly with 6×2 ml of 0.9% sodium chloride solution followed by 5 minute sedimentation to remove the dissolved enzymes (factor Xa and thrombin). The thrombin content of the washings is assayed as follows.
c) To 400 μL of washing liquid 100 μL of 1 mM Tos-Gly-Pro-Arg-pNA substrate solution is added and the mixture is incubated for 30 minutes at 37° C., then the reaction is stopped by the addition of 100 μL of 50% acetic acid. 150 μL portions of this mixture are transferred into the wells of the 96-well microtiter plate and the extinction is measured at 405 nm (ELISA READER SLT Laborinstrument GmbH, Austria). When the washing is successful, the extinction is less than 5% of the control
Assay of the Inhibition of Thrombin Entrapped in Plasma Clot
a) Peptide inhibitor solutions are prepared by the process described in Method M2, point a).
b) After draining the washing liquid, 400 μL of the peptide solution (3 parallel samples for each concentration) and 400 μL of buffer, serving as control, are placed on the clot (Method M1) and the mixture is incubated for 5 minutes at 37° C. Thereafter 100 μL of […] Tos-Gly-Pro-Arg-pNA substrate solution is added and incubation at 37° C. is continued for further 30 minutes, then the reaction is stopped by the addition of 100 μL of 50% acetic acid. The operation is continued as described in Method M2, point c).

The target of assay [9] is T4, fibrin-gel bound thrombin (Homo sapiens, UniProt P00734).
T4 construct: Here prothrombin is converted to thrombin; purchased SIGMA
In words: Inhibition of thrombin bound to fibrin-gel (methods M4, M5). Format: biochemical. Particulars: Tos-Gly-Pro-Arg-pNA substrate. How it is done:
as §7
Preparation of Fibrin-Gel
a) 200 μL of 6 mg/mL human fibrinogen (SIGMA), 25 μL of 25 NIH U/mL human thrombin (SIGMA) and 40 μL of 100 mM calcium chloride solution are placed in each reaction vessel and the mixtures are stored for one hour at 20-22° C. The fibrin formed is rinsed mildly with 3×2 ml of isotonic saline solution followed by sedimentation to remove the thrombin content of the solution. The efficacy of rinsing is controlled by the process described in Method M1, point c).
Assay of the Inhibition of Thrombin Bound to Fibrin-Gel
a) 0.1-1.0-10 and 100 μg/ml solutions are prepared with Hepes/NaCl buffer (0.01 M Hepes and 0.1 M sodium chloride, pH=7.4).
b) Thereafter the procedure described in Method M3, point b) is followed.

[10] abbreviates: Table 1, Bz-Ile-Glu-Gly-Arg-pNA chromogen substrate, read-out: A: IC50 (fXa inhibiting effect).
Setting [11] is: Table 1, read-out: B: IC50, APTT.
The mark [12] stands for this setting: related to the activity of C1 (1/IC50 = 1).
Where [13] appears, read: Table 2, Bz-Ile-Glu-Gly-Arg-pNA, isolated human factor Xa, read-out: B: IC50 (factor Xa inhibiting effect).
Where [14] appears, read: Table 2, read-out: A: IC50, APTT.

Structures can show the parent of a compound that is named as a salt. Where two headings read alike, the source gives them in different places. Square brackets hold non-standard residues; d marks the D form. Peptide text beside a SMILES is read from it. * marks the point of attachment. 1Nal = N[C@@H](Cc1cccc2ccccc12)C(=O)O; Boc = CC(C)(C)OC(=O)*

Usually IC50 stands for the midpoint of a concentration-inhibition curve.

T1 sequence (P00742 235-488 limits assumed): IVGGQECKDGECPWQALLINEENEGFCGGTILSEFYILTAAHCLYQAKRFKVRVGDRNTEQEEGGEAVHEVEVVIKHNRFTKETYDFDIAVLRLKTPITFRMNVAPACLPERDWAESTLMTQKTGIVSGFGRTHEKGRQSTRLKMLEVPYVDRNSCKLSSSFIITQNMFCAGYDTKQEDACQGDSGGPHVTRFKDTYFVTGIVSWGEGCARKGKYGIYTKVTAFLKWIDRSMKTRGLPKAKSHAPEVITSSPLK
T1 sequence (P00742 41-179 partner limits assumed): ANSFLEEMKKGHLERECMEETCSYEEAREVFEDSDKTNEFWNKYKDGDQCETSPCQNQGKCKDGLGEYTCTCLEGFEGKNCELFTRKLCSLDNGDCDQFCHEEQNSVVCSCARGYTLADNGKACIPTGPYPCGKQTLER
Chain of tissue plasminogen activator (tPA) (P00750 36-562, species assumed): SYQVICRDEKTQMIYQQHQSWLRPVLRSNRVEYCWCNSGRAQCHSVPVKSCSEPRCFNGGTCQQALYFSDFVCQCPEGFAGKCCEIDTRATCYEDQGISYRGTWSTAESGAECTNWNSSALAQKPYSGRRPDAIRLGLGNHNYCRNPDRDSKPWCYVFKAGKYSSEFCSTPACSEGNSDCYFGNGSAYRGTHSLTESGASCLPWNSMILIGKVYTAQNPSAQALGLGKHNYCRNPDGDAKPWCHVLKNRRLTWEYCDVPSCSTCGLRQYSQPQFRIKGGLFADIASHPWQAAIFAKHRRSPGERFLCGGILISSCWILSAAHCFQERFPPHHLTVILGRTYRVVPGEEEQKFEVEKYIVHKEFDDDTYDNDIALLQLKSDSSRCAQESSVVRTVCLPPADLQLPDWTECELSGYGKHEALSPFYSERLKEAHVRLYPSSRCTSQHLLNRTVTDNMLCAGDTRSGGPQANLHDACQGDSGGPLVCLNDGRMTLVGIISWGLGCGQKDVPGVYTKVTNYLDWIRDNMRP
Chain of plasmin (PL) (P00747 581-810 limits assumed, species assumed): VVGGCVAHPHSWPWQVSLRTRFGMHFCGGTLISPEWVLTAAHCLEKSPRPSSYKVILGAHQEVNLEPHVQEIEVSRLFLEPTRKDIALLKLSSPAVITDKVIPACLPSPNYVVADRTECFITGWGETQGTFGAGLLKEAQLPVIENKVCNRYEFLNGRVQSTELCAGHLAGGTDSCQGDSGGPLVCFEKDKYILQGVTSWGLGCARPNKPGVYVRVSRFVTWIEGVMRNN
Chain of plasmin (PL) (P00747 97-580 partner limits assumed, species assumed): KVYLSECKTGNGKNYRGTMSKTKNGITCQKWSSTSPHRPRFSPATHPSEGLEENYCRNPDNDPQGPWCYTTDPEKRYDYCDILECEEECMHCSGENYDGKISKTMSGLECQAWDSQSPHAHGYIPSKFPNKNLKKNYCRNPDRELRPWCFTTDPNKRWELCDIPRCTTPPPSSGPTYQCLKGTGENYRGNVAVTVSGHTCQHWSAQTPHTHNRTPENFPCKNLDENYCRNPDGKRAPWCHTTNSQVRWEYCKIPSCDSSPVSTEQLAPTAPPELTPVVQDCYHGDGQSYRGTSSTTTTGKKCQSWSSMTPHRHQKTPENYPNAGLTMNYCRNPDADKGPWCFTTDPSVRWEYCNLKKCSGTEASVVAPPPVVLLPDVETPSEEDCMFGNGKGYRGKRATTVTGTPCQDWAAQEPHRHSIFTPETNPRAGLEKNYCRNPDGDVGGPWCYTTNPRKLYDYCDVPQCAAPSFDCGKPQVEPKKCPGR
Chain of fXa (P00742 235-488 limits assumed): as the sequence (P00742 235-488 limits assumed) above
Chain of fXa (P00742 41-179 partner limits assumed): as the sequence (P00742 41-179 partner limits assumed) above

Turning to 4-MeP-Asp-Pro-Arg-H [Compound C3], the IC50 on human factor Xa (setting [10]) was 64 nM; in assay [1] (Table 1, read-out: B: IC50, PT), 19300 nM; in assay [2] (setting [11]) it was 4590 nM; at thrombin [3] (Table 1, read-out: B: IC50, TT) it was 870 nM; at fXa, 57 nM.
As for `CC(C)(C)OC(=O)N[C@H](Cc1ccccc1)C(=O)N1CCC[C@H]1C(=O)N[C@H](C=O)CCCNC(=N)N` [Boc-D-Phe-Pro-Arg-H], the IC50 at plasmin (PL) was found to be 12000 nM; in assay [4], 6000 nM; against urokinase (UK), 3000 nM. Further, the “B: relative efficacy, PL” value at plasmin (PL) (setting [12]) is 4.5. Besides, in [4] (setting [12]), the “B: relative efficacy, tPA” value is given as 22.0. The “B: relative efficacy, UK” value on urokinase (UK) (setting [12]) was determined as 27.3.
Consider `N=C(N)NCCC[C@@H](C=O)NC(=O)[C@H]1CCCN1C(=O)C(O)C1CCCC1.N=C(N)NCCC[C@@H](C=O)NC(=O)[C@H]1CCCN1C(=O)C(O)C1CCCC1.O=S(=O)(O)O` (stereo partly drawn) [Compound 2, D-2-Cyclopentyl-2-hydroxyacetyl-L-prolyl-L-arginine aldehyde hemisulfate], for which the IC50 at human factor Xa (setting [13]) is 107 nM; in [1] (Table 2, read-out: A: IC50, PT) it was 2030 nM; in assay [2] (setting [14]), 710 nM; at thrombin [3] (Table 2, read-out: A: IC50, TT), 100 nM; against plasmin (PL), 390000 nM; in [4], 112000 nM. For the same compound, half-maximal inhibition on urokinase (UK) (IC50) required 137000 nM. In addition, the “B: relative efficacy, PL” value on plasmin (PL) turned out to be 0.13. Moreover, on plasmin (PL) (versus C3 of Table 4), the “times lower activity than compound C3, first enzyme (PL)” value is listed as 7.5. In assay [4], the “B: relative efficacy, tPA” value was 1.2. Also, the “times lower activity than compound C3, second enzyme (tPA)” value in [4] (versus C3 of Table 4) stood at 12. Also, the “B: relative efficacy, UK” value at urokinase (UK) came out at 0.6. In addition, on urokinase (UK) (versus C3 of Table 4), the “times lower activity than compound C3, third enzyme (UK)” value was determined as 39.
For `CC(=N)N1CC[C@H](Oc2ccc([C@H](Cc3ccc4ccc(C(=N)N)cc4c3)C(=O)O)cc2)C1` [Compound C2, (+)-(2S)-2-[4[[(3S)-1-acetimidoyl-3-pyrrolidinyl]oxy]phenyl]-3-[7[amidino-2-naphthyl]-propionic acid hydrochloride pentahydrate], the IC50 in assay [5] was 520 nM; in [6], 970 nM. Moreover, the “activity in the TT test” value on thrombin [7] was “fail to exert any activity”.
Regarding `CC(C)(C)OC(=O)N[C@H](Cc1ccccc1)C(=O)N[C@@H](Cc1cccc2ccccc12)C(=O)N[C@H](C=O)CCCN=C(N)N` [Compound C4, Boc-D-Phe-Nal(1)-Arg-H] (Boc-[dF]-[1Nal]-Arg-aldehyde), the IC50 was 86 nM at human factor Xa (setting [10]); 53600 nM in assay [1] (Table 1, read-out: B: IC50, PT); 9960 nM in [2] (setting [11]); 17200 nM on thrombin [3] (Table 1, read-out: B: IC50, TT); 30 nM on fXa.
Turning to `NC(N)=NCCC[C@@H](C=O)NC(=O)[C@@H]1CCCN1C(=O)[C@H](O)C1CCCCC1` [Compound C5, D-Hma-Pro-Arg-H], the IC50 on human factor Xa (setting [13]) was determined as 247 nM; in [1] (Table 2, read-out: A: IC50, PT), 2140 nM; in [2] (setting [14]), 790 nM; at thrombin [3] (Table 2, read-out: A: IC50, TT), 220 nM; in [8] it was 270 nM; in assay [9], 220 nM.
As to “TAP: 60-member polypeptide isolated from tick, fXa inhibitor (YNRLCIKPRDWIDECDSNEGGERAYFRNGKGGCDSFWICPEDHTGADYYSSYRDCFNACI; UniProt P17726 1-60, looked up)”, in the assay with thrombin [7], the “activity in the TT test” value is “fail to exert any activity”.
